Measurements reported in US11407767B2, “Heterocyclyl substituted pyrrolopyridines that are inhibitors of the CDK12 kinase” (The University of Nottingham, priority 2017, dated 2022).
Structures can show the parent of a compound that is named as a salt.

Biological target: CDK12/CycK (Homo sapiens, UniProt Q9NYV4)
Experiment: Inhibition of CDK12 (ADP-Glo kinase assay)
Format: biochemical
Conditions: 60 nM CDK12/CycK, 30 minutes pre-incubation, 1 μM ATP, 0.5 μM RBER-IRStide substrate, 1 h at 25° C., read-out: CDK12/cyclin K IC50
Method in brief: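 Compounds pre-incubated 30 min with 60 nM CDK12/CycK in HEPES pH 7.5 buffer with Mg2+/Mn2+, 1% DMSO final. Reaction started with 1 μM ATP and 0.5 μM RBER-IRStide, run 1 h at 25 °C; ADP-Glo luminescence, no-kinase blank subtracted, IC50 from sigmoidal fit of % inhibition.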

Chain of CDK12/CycK (Q9NYV4 whole entry): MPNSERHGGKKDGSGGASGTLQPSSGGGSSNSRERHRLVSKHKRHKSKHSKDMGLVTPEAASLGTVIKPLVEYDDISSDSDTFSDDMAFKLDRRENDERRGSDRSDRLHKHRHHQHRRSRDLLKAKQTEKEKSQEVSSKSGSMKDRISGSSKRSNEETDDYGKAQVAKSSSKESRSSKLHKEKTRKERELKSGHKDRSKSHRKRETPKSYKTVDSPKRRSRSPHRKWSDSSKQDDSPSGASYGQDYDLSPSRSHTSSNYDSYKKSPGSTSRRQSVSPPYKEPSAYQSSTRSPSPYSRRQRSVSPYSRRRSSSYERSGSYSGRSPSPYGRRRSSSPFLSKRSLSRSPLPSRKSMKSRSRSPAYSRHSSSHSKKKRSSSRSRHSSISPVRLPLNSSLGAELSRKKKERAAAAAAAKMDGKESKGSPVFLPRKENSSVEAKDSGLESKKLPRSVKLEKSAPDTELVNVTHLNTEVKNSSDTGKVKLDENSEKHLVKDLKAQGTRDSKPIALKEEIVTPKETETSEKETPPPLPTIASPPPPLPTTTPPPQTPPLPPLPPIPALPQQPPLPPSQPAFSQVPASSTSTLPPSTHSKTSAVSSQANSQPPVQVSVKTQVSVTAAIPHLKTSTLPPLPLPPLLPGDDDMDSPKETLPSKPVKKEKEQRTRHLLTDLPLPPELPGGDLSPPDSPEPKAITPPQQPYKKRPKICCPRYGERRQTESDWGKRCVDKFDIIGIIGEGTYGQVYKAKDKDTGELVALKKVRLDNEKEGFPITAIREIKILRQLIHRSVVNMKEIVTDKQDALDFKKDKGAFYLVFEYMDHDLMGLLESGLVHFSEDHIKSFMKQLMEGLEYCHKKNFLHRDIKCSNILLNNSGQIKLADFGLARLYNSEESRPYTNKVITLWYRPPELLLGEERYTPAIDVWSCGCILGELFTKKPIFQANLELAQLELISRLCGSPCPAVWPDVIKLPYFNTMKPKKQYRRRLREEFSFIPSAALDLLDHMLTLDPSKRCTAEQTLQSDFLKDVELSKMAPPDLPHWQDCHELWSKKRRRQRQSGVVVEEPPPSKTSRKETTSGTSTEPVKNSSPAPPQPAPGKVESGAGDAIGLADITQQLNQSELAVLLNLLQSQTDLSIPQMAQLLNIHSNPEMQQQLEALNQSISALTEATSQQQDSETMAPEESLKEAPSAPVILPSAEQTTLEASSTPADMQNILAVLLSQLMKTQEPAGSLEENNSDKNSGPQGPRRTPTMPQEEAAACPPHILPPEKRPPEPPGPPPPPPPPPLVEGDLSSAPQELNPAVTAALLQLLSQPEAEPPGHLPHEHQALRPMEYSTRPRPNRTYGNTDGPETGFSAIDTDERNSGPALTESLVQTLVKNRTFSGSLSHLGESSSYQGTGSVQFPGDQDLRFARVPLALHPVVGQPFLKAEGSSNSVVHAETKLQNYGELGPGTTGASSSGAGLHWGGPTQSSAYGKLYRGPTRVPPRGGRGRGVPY
Chain of CDK12/CycK (O75909 whole entry partner): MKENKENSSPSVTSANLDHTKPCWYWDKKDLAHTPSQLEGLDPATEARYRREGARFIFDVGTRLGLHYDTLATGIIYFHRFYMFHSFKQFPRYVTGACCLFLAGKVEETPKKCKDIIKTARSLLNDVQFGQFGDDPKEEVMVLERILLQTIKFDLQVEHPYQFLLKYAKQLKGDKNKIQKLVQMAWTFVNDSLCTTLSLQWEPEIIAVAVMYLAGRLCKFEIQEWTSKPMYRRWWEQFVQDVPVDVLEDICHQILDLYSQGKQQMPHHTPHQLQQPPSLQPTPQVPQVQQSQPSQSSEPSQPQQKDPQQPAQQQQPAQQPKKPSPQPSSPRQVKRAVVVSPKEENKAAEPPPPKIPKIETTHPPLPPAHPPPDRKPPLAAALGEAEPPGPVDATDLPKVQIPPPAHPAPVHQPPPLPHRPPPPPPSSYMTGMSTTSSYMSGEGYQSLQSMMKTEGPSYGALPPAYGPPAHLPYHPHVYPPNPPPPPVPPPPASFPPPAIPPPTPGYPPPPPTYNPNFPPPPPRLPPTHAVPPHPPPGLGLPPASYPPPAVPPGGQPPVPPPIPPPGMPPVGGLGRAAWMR

Structure (SMILES)	IC50
C=CC(=O)Nc1cccc(C(=O)N2CC[C@@H](c3cc4c(-c5cnn6ncccc56)ccnc4[nH]3)C2)c1 (single isomer, unassigned) [Example 149, N-(3-(3-(4-(Pyrazolo[1,5-b]pyridazin-3-yl)-1H-pyrrolo[2,3-b]pyridin-2-yl)pyrrolidine-1-carbonyl)phenyl)acrylamide]	< 0.1 µM
C=CC(=O)N1CCC(CC(=O)NCc2cc3c(-c4cnn5ncccc45)ccnc3[nH]2)CC1 [Example 193, 2-(1-Acryloylpiperidin-4-yl)-N-((4-(pyrazolo[1,5-b]pyridazin-3-yl)-1H-pyrrolo[2,3-b]pyridin-2-yl)methyl)acetamide]	1 to 30 µM
O=C(NCCc1cc2c(-c3cnn4ncccc34)ccnc2[nH]1)[C@@H]1CCCN1C(=O)C1=CCCC1 [Example 166, (S)-1-(Cyclopent-1-ene-1-carbonyl)-N-(2-(4-(pyrazolo[1,5-b]pyridazin-3-yl)-1H-pyrrolo[2,3-b]pyridin-2-yl)ethyl)pyrrolidine-2-carboxamide]	0.1 to 1 µM
C=CC(=O)N1CCC[C@H]1C(=O)NCCc1cc2c(-c3ccncc3)ccnc2[nH]1 [Example 95, (S)-1-Acryloyl-N-(2-(4-(pyridin-4-yl)-1H-pyrrolo[2,3-b]pyridin-2-yl)ethyl)pyrrolidine-2-carboxamide]	1 to 30 µM
C=CC(=O)N1CCC[C@H](C(=O)N(C)CCc2cc3c(-c4cnn5ncccc45)ccnc3[nH]2)C1 [Example 48, (S)-1-Acryloyl-N-methyl-N-(2-(4-(pyrazolo[1,5-b]pyridazin-3-yl)-1H-pyrrolo[2,3-b]pyridin-2-yl)ethyl)piperidine-3-carboxamide]	0.1 to 1 µM
O=C(CN1CCOCC1)NCc1cc2c(-c3cnn4ncccc34)ccnc2[nH]1 [Example 13, 2-Morpholino-N-((4-(pyrazolo[1,5-b]pyridazin-3-yl)-1H-pyrrolo[2,3-b]pyridin-2-yl)methyl)acetamide]	1 to 30 µM
C=CC(=O)Nc1cncc(C(=O)N2CCC(c3cc4c(-c5cnn6ncccc56)ccnc4[nH]3)C2)c1 (stereo not shown) [Example 65, N-(5-(3-(4-(Pyrazolo[1,5-b]pyridazin-3-yl)-1H-pyrrolo[2,3-b]pyridin-2-yl)pyrrolidine-1-carbonyl)pyridin-3-yl)acrylamide]	< 0.1 µM
CN1CCN(CC(=O)NCc2cc3c(-c4cnn5ncccc45)ccnc3[nH]2)CC1 [Example 14, 2-(4-Methylpiperazin-1-yl)-N-((4-(pyrazolo[1,5-b]pyridazin-3-yl)-1H-pyrrolo[2,3-b]pyridin-2-yl)methyl)acetamide]	1 to 30 µM
Clc1cnc2[nH]ccc2c1-c1cnn2ncccc12 [Example 132, 3-(5-Chloro-1H-pyrrolo[2,3-b]pyridin-4-yl)pyrazolo[1,5-b]pyridazine]	0.1 to 1 µM
C=CC(=O)N1CCC[C@H](C(=O)N2CCC(c3cc4c(-c5cnn6ncccc56)ccnc4[nH]3)C2)C1 (stereo partly drawn) [Example 206, 1-((3S)-3-(3-(4-(Pyrazolo[1,5-b]pyridazin-3-yl)-1H-pyrrolo[2,3-b]pyridin-2-yl)pyrrolidine-1-carbonyl)piperidin-1-yl)prop-2-en-1-one]	< 0.1 µM
C#CC(=O)N1CCC(C(=O)N2CCC(c3cc4c(-c5cnn6ncccc56)ccnc4[nH]3)C2)CC1 (stereo not shown) [Example 147, 1-(4-(3-(4-(Pyrazolo[1,5-b]pyridazin-3-yl)-1H-pyrrolo[2,3-b]pyridin-2-yl)pyrrolidine-1-carbonyl)piperidin-1-yl)prop-2-yn-1-one]	< 0.1 µM
CC(=O)N1CCO[C@H](C(=O)NCCc2cc3c(-c4cnn5ncccc45)ccnc3[nH]2)C1 (single isomer, unassigned) [Example 62]	< 0.1 µM
O=C(NCCc1cc2c(-c3cnn4ncccc34)ccnc2[nH]1)[C@@H]1CCCN1C(=O)/C=C/CN1CCOCC1 [Example 86, (S,E)-1-(4-Morpholinobut-2-enoyl)-N-(2-(4-(pyrazolo[1,5-b]pyridazin-3-yl)-1H-pyrrolo[2,3-b]pyridin-2-yl)ethyl)pyrrolidine-2-carboxamide]	1 to 30 µM
CCn1nccc1-c1ccnc2[nH]ccc12 [Example 19, 4-(1-Ethyl-1H-pyrazol-5-yl)-1H-pyrrolo[2,3-b]pyridine]	1 to 30 µM

Results, then the molecule that gave them:

IC50	Structure (SMILES)
< 0.1 µM	C=CC(=O)N1CCN(C(=O)/C=C/c2cc3c(-c4cnn5ncccc45)ccnc3[nH]2)CC1 [Example 209, (E)-1-(4-Acryloylpiperazin-1-yl)-3-(4-(pyrazolo[1,5-b]pyridazin-3-yl)-1H-pyrrolo[2,3-b]pyridin-2-yl)prop-2-en-1-one]
1 to 30 µM	C=CC(=O)N1CCC[C@H](C(=O)NCc2cc3c(-c4cnn5ncccc45)ccnc3[nH]2)C1 [Example 186, (S)-1-Acryloyl-N-((4-(pyrazolo[1,5-b]pyridazin-3-yl)-1H-pyrrolo[2,3-b]pyridin-2-yl)methyl)piperidine-3-carboxamide]
1 to 30 µM	C=CC(=O)N[C@H]1COC[C@@H]1C(=O)NCc1cc2c(-c3cnn4ncccc34)ccnc2[nH]1 [Example 58, (3R,4R)-4-Acrylamido-N-((4-(pyrazolo[1,5-b]pyridazin-3-yl)-1H-pyrrolo[2,3-b]pyridin-2-yl)methyl)tetrahydrofuran-3-carboxamide]
1 to 30 µM	c1ccc(Cn2cc(-c3ccnc4[nH]ccc34)nn2)cc1 [Example 134, 4-(1-Benzyl-1H-1,2,3-triazol-4-yl)-1H-pyrrolo[2,3-b]pyridine]
< 0.1 µM	C=CC(=O)NCC(=O)N1CCC(c2cc3c(-c4cnn5ncccc45)ccnc3[nH]2)C1 (stereo not shown) [Example 152, N-(2-Oxo-2-(3-(4-(pyrazolo[1,5-b]pyridazin-3-yl)-1H-pyrrolo[2,3-b]pyridin-2-yl)pyrrolidin-1-yl)ethyl)acrylamide]
1 to 30 µM	c1cncc(Cn2cc(-c3ccnc4[nH]ccc34)nn2)c1 [Example 136, 4-(1-(Pyridin-3-ylmethyl)-1H-1,2,3-triazol-4-yl)-1H-pyrrolo[2,3-b]pyridine]
1 to 30 µM	C=CC(=O)NCc1cccc(C(=O)NCc2cc3c(-c4cnn5ncccc45)ccnc3[nH]2)c1 [Example 192, 3-(Acrylamidomethyl)-N-((4-(pyrazolo[1,5-b]pyridazin-3-yl)-1H-pyrrolo[2,3-b]pyridin-2-yl)methyl)benzamide]
1 to 30 µM	CCn1cc(-c2ccnc3[nH]ccc23)nn1 [Example 133, 4-(1-Ethyl-1H-1,2,3-triazol-4-yl)-1H-pyrrolo[2,3-b]pyridine]
1 to 30 µM	C=CC(=O)N1CCC[C@H]1C(=O)NCCc1cc2c(-c3ccnn3C)ccnc2[nH]1 [Example 51, (S)-1-Acryloyl-N-(2-(4-(1-methyl-1H-pyrazol-5-yl)-1H-pyrrolo[2,3-b]pyridin-2-yl)ethyl)pyrrolidine-2-carboxamide]
1 to 30 µM	CN(C)CCOCc1cc2c(-c3cnn4ncccc34)ccnc2[nH]1 [Example 168, N,N-Dimethyl-2-((4-(pyrazolo[1,5-b]pyridazin-3-yl)-1H-pyrrolo[2,3-b]pyridin-2-yl)methoxy)ethan-1-amine Formate]
< 0.1 µM	C=CC(=O)N1CCC[C@@H]1C(=O)N1CCC(c2cc3c(-c4cnn5ncccc45)ccnc3[nH]2)C1 (stereo partly drawn) [Example 154, 1-((2R)-2-(3-(4-(Pyrazolo[1,5-b]pyridazin-3-yl)-1H-pyrrolo[2,3-b]pyridin-2-yl)pyrrolidine-1-carbonyl)pyrrolidin-1-yl)prop-2-en-1-one]
